Assay results as given in patent US5951981A, “Thrombolytic agents with antithrombotic activity” (Diatide, Inc., priority 1996, dated 1999).

System: human platelets in platelet-rich plasma (PRP)
Experiment: Platelet aggregation inhibition assay (ADP-induced, aggregometer)
Format: cell-based
Settings: fresh human PRP, 250,000 platelets/μL; aggregation induced with 20 micromolar ADP at 37° C.; inhibitor added about 1 min before ADP; read-out: IC50 (concentration of inhibitor that reduced the extent of platelet aggregation by 50%)
Protocol: Platelet aggregation studies were performed essentially as described by Zucker (1989, Methods in Enzymol. 169: 117-133). Briefly, platelet aggregation was assayed with or without putative platelet aggregation inhibitory compounds using fresh human platelet-rich plasma (PRP), comprising 250,000 platelets per microlitre. Whole human blood (36 mL) were freshly drawn from volunteers who were medication-free for at least 2 weeks prior to blood draw. Blood was drawn into 4 mL of a 0.1M sodium citrate solution and centrifuged (150 g for 20 min at 22° C.) to pellet red blood cells. The supernatant, comprising PRP, was removed and the remaining blood recentrifuged at 8000 g for 10 min to produce platelet-poor plasma (PPP; used to dilute the PRP to a final concentration of 250,000 platelets/μL). Alternatively, PPP was prepared by centrifugation of PRP for 1 min in a tabletop microcentrifuge. PPP is also used as a negative control for platelet aggregation.
Platelet aggregation was induced by the addition at 37° C. of a solution of adenosine diphosphate to a final concentration of 20 micromolar, and the extent of platelet aggregation monitored using a four channel aggregometer (Model IV Plus, Helena Laboratories, Beaumont, Tex.). […] Inhibition curves for a variety of disintegrins comprising the peptide sequence RGD was determined for each batch of platelets tested as positive controls.

Substance: CH2 CO-YD .Amp.GDCKGCG.amide [P734 peptide]
- IC50: 0.067 µM
